From patent US20160199481A1 (priority 2013, published 2016)
Entries after “also recorded” stand apart in the source; their conditions may differ.

How the values were obtained:
WT HA/WT NA virus [1] = type: cell-based, influenza A
WT HA/WT NA virus [2] = type: cell-based, influenza A; remark: listed apart in the source

## oseltamivir
WT HA/WT NA virus [1]
  inhibition of agglutination by oseltamivir: uninhibited at all oseltamivir concentrations tested
WT HA/WT NA virus [2]
  neutralization of infectivity (percent infectivity remaining): resistant to neutralization by oseltamivir; also recorded: uninhibited at all concentrations tested
